This is an account of results in patent publication US11629146B2, “Substituted [1,2,4]triazolo[4,3-a]pyrazines as modulators of sodium channel activity” (Praxis Precision Medicines, Inc., priority 2016, dated 2023).

Each structure is given as a SMILES string. pIC50: −log10 of the molar value. Like-named read-outs stand apart in the source and are kept apart here.

A short description of data set [1]: PK rat clearance experiment. The class given is in vivo. Conditions: male Sprague-Dawley rats, single intravenous bolus 0.5 mg/kg, plasma.
Experimental: The IV dosing solution was prepared freshly on the dosing day. Test article (0.5 mg/kg) was prepared in a vehicle, for example, consisting of 5% DMSO/5% solutol/90% water. The concentrations of test article in all dosing solutions were determined by HPLC/UV. Three male Sprague-Dawley rats were used in this study. The animals were confirmed healthy before being assigned to the study. Each animal was given a unique identification number which was marked on the tail or the ear, and written on the cage card. All animals were fasted overnight before dosing and the food was returned at 4 hours post dosing. Water was provided to all animals ad libitum during the fasting period. Animals were weighed prior to dose administration on the day of dosing for calculating the actual dose volume. The body weights were in the range from 212 g to 223 g for males. All animals received test article by single intravenous bolus administration at 0.5 mg/kg. Approximately 0.2 mL blood was collected at each time point via jugular vein from each study animal. […] All blood samples were transferred into pre-labeled plastic micro centrifuge tubes and mixed with the pre-loaded anti-coagulant K2EDTA (5 μL, 0.5 M). Plasma samples were then prepared by centrifuging the blood samples. All plasma samples were then quickly frozen over dry ice and kept at −60° C. or lower until LC/MS/MS analysis. The concentrations of test article in plasma were determined by using a quantitative bioanalytical LC/MS/MS method. The lower limit of quantitation (LLOQ) for test article in plasma was 1 ng/mL, and the upper limit of quantitation (ULOQ) in plasma was 3000 ng/mL. The plasma concentration of test article in rats was subjected to a non compartmental pharmacokinetic analysis by using the Phoenix WinNonlin software (version 6.3, Pharsight, Mountain View, Calif.). The linear/log trapezoidal rule was applied in obtaining the PK parameters.
Another data set addresses CYP1A2 (Homo sapiens (Human), UniProt P05177). The data set can be described thus: CYP1A2 inhibition in human liver microsomes. In kind it is in vitro ADME. The following applies: pooled human liver microsomes, marker substrate Phenacetin. The method, then:
The specific marker metabolites are measured with LC/MS/MS. The remaining enzymatic activities and inhibitory potency IC50 are determined. Microsomes are removed out of the −80° C. freezer to thaw on ice and 20 μL of the substrates solution added to the corresponding wells. […] Then 158 μL of the HLM working solution was added to all wells of the incubation plate. The plate was pre-warmed for about 10 min using a 37° C. water bath. Then 20 μL of the NADPH cofactor solution was added to all incubation wells, mixed and incubated for 10 minutes at 37° C. water bath. The reaction is terminated by adding 400 μL cold stop solution (200 ng/mL Tolbutamide and 200 ng/mL Labetalol in ACN). […] Finally 200 μL of the supernatant was transferred to 100 μL HPLC water, shaken for 10 min and analyzed by LC/MS/MS. […] Equation for three parameters logistic sigmoidal curve: […]

For data set [2], the target named is human NaV1.5 late sodium current (INaL) (Homo sapiens (Human), UniProt Q14524). The data set can be described thus: INaL inhibition at hNaV1.5, PatchXpress electrophysiology. In kind it is cell-based. Conditions: HEK-293 cells expressing recombinant human NaV1.5, HEK-293 cells expressing hNaV1.5, late current evoked by 300 nM ATX-II, read-out: INaL v1.5 (1 μM, % Inhibition).
Chain of human NaV1.5 late sodium current (INaL) (Q14524 whole entry): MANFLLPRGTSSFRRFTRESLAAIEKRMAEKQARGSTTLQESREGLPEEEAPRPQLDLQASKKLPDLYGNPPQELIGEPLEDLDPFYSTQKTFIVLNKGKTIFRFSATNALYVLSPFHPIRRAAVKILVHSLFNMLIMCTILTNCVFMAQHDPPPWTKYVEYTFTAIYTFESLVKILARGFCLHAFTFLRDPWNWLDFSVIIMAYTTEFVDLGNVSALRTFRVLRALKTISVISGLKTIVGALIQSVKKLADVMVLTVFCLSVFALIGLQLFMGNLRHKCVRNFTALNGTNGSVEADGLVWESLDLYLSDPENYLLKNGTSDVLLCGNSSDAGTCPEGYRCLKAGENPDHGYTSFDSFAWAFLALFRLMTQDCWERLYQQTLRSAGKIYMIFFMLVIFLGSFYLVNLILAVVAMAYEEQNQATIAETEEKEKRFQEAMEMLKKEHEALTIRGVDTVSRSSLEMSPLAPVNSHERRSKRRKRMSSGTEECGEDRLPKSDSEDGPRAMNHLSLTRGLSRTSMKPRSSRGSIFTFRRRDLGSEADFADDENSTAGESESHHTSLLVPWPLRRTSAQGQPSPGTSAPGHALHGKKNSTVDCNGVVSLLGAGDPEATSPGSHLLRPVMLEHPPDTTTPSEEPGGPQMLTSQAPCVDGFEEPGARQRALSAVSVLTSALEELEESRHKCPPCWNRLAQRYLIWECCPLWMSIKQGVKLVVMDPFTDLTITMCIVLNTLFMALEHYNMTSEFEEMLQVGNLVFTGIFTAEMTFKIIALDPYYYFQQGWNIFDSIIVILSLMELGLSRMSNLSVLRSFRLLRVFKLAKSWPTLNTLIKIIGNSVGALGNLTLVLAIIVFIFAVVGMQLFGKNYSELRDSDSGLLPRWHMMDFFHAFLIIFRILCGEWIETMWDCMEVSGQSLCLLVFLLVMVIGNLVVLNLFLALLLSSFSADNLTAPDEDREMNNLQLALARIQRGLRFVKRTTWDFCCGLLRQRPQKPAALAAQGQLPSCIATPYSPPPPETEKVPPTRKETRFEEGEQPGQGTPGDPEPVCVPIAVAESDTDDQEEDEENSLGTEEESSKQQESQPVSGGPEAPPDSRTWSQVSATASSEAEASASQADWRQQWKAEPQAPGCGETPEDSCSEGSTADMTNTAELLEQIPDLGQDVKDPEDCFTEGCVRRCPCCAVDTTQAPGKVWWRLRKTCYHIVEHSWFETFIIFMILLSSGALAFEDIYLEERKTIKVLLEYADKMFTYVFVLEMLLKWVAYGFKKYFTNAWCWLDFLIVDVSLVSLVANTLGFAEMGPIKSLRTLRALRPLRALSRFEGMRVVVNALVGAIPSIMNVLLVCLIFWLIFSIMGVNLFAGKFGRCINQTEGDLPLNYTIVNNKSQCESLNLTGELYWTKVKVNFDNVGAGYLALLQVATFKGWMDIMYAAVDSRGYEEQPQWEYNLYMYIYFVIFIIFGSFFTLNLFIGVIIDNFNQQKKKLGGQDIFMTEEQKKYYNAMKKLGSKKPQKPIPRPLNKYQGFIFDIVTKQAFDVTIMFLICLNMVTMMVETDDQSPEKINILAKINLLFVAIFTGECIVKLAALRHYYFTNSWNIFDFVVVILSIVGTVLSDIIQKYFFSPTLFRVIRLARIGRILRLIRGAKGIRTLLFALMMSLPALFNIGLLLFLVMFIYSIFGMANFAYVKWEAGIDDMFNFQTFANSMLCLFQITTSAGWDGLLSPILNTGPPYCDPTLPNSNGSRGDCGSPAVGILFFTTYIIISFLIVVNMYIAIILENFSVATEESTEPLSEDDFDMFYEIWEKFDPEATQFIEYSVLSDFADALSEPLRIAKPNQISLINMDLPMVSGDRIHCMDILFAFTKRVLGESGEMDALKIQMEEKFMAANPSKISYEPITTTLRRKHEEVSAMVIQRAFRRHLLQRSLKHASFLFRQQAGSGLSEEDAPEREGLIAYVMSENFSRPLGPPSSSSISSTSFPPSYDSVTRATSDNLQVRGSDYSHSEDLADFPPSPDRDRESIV

Another data set has as its target human NaV1.6 (hNaV1.6) (Homo sapiens (Human), UniProt Q9UQD0). Description: INaL inhibition at hNaV1.6, PatchXpress electrophysiology. In kind it is cell-based. The method in brief:
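Recombinant hNaV1.6 in HEK-293 cells recorded by automated patch clamp, with late current evoked by 300 nM ATX-II. INaL taken as mean current over the final 20 ms of the test pulse. Steady-state inhibition expressed as […].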

The mark [3] stands for this setting: HEK293, 1 μM, HEK-293 cells expressing hNaV1.6, late current evoked by 300 nM ATX-II, read-out: INaL v1.6 (1 μM, % Inhibition).

Chain of CYP1A2 (P05177 whole entry): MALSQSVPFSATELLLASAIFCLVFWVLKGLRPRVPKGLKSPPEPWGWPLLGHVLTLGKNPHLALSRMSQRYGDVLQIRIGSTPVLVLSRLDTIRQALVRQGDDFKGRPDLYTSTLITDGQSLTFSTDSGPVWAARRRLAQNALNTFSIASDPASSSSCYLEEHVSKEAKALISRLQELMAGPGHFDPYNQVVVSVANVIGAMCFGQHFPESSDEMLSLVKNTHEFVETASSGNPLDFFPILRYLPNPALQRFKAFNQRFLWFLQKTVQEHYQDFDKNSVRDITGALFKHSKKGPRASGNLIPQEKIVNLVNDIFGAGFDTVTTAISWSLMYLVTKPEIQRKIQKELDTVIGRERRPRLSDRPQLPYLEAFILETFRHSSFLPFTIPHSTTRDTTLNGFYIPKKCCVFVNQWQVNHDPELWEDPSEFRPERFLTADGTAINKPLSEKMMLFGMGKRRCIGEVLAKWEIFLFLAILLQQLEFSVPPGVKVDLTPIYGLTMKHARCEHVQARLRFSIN
Chain of human NaV1.6 (hNaV1.6) (Q9UQD0 whole entry): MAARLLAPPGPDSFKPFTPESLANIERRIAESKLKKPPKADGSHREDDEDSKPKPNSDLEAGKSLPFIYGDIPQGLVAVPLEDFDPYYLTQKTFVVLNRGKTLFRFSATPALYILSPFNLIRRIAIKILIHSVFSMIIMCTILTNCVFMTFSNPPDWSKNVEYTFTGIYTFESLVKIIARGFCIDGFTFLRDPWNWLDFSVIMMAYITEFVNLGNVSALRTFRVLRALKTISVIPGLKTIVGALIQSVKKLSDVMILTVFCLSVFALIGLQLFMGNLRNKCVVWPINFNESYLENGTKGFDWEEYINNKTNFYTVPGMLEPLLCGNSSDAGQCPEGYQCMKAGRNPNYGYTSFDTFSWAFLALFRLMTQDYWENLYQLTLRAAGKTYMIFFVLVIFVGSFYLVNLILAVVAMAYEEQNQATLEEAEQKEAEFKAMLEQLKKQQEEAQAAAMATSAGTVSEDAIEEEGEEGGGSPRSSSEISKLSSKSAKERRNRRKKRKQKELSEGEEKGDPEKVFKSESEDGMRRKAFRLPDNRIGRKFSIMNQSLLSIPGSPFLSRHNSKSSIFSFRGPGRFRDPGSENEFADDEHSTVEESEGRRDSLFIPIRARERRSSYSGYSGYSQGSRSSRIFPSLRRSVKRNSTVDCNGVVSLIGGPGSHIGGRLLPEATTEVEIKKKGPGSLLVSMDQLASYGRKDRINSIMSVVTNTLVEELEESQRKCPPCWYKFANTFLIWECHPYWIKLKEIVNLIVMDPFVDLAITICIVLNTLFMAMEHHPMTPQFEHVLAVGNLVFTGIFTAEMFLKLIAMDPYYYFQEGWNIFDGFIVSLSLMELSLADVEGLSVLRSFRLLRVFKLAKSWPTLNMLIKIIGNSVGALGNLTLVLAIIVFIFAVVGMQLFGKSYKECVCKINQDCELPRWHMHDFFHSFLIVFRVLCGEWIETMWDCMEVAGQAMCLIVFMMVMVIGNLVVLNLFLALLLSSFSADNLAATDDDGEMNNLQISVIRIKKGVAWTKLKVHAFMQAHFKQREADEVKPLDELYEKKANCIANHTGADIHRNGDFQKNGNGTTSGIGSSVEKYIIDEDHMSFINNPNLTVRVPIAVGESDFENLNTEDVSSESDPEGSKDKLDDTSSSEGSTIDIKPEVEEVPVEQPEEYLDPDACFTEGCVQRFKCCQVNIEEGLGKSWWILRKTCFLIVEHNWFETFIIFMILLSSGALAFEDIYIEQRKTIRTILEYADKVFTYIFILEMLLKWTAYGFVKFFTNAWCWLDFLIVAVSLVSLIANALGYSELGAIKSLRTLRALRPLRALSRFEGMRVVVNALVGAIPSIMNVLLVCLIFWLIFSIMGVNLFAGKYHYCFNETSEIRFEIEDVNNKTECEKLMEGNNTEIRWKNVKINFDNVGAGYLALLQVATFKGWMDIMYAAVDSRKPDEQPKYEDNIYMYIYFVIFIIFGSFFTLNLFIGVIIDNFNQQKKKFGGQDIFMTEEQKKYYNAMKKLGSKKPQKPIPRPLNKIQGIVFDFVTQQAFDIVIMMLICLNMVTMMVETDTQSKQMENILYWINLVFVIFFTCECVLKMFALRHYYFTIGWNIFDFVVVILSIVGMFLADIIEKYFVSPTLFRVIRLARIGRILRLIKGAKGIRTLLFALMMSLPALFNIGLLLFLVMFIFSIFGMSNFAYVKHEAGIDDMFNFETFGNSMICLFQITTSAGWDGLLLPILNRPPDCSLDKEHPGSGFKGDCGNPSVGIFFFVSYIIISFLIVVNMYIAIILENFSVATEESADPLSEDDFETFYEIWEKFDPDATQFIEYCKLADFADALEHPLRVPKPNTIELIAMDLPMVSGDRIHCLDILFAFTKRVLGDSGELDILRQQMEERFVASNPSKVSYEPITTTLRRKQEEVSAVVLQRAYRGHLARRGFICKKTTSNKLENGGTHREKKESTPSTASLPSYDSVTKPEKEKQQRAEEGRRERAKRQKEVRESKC

On to `Cc1cc(C(F)(F)F)ccc1-c1ccc2nnc(C(F)(F)F)n2n1` [Compound 3], for which the clearance in data set [1] came to 6 mL/min/kg. This compound also showed a half-life in data set [1] of 6.7 h. The same compound showed a pIC50 on CYP1A2 of 4.82 to 6.00. Besides, the results for the inhibition at 1 µM (in data set [2]; at human NaV1.6 (hNaV1.6) (setting [3])) were over 50% and over 70%, respectively.
For `FC(F)(F)Cc1nnc2ccc(-c3ccc(OC(F)(F)F)cc3)nn12` [Compound 6], in that order: 9.2 mL/min/kg, 3.2 h, 4.82 to 6.00, over 50% and 30 to 70%.
In the case of `FC(F)(F)Oc1ccc(-c2ccc3nnc(CC4CCOC4)n3n2)cc1` (centres unmarked) [Compound 10], the results for the inhibition at 1 µM (in data set [2]; on human NaV1.6 (hNaV1.6) (setting [3])) were under 50% and 30 to 70%, respectively.
With `FC(F)(F)Oc1ccc(-c2ccc3nnc(CC4CCCO4)n3n2)cc1` (centres unmarked) [Compound 11], the inhibition at 1 µM in data set [2] is under 50%; at human NaV1.6 (hNaV1.6) (setting [3]), under 30%.
In data set [1], `N#CC1(c2ccc(-c3ccc4nnc(C(F)(F)F)n4n3)cc2)CC1` [Compound 12] gave a clearance of 5.1 mL/min/kg and a half-life of 1.4 h. On CYP1A2, this compound had a pIC50 of 4.82 to 6.00. In addition, in data set [2], the inhibition at 1 µM was over 50%. The inhibition at 1 µM on human NaV1.6 (hNaV1.6) (setting [3]) was over 70%.
For the compound `COc1cc(OC(F)(F)F)ccc1-c1ccc2nnc(C3CC(F)(F)C3)n2n1` [Compound 13], the inhibition at 1 µM in data set [2] is over 50%; on human NaV1.6 (hNaV1.6) (setting [3]), over 70%.
`FC1(F)CC(c2nnc3ccc(-c4ccc(OC(F)(F)F)cc4)nn23)C1` [Compound 14]: in data set [1], the clearance was determined as 32.8 mL/min/kg and the half-life was 1.4 h. Moreover, the inhibition at 1 µM in data set [2] is over 50%. Besides, the inhibition at 1 µM on human NaV1.6 (hNaV1.6) (setting [3]) was over 70%.
On to `COc1cc(OC(F)(F)F)ccc1-c1ccc2nnc(C3CC3(F)F)n2n1` (centres unmarked) [Compound 15], for which the inhibition at 1 µM in data set [2] was over 50%; on human NaV1.6 (hNaV1.6) (setting [3]) it was over 70%.
For the compound `COc1cc(OC(F)(F)F)ccc1-c1ccc2nnc(C(F)F)n2n1` [Compound 16], in data set [1], the clearance was found to be 52.3 mL/min/kg and the half-life is 0.49 h. In addition, the inhibition at 1 µM in data set [2] is over 50%. In addition, at human NaV1.6 (hNaV1.6) (setting [3]), the inhibition at 1 µM is over 70%.
As to `FC(F)(F)Oc1cccc(-c2ccc3nnc(C(F)(F)F)n3n2)c1` [Compound 17], the inhibition at 1 µM was under 50% in data set [2] and 30 to 70% on human NaV1.6 (hNaV1.6) (setting [3]).
Consider `Fc1ccc(OC(F)(F)F)cc1-c1ccc2nnc(C(F)(F)F)n2n1` [Compound 18], for which the results for the inhibition at 1 µM (in data set [2]; on human NaV1.6 (hNaV1.6) (setting [3])) were under 50% and under 30%, respectively.
For `Fc1c(OC(F)(F)F)cccc1-c1ccc2nnc(C(F)(F)F)n2n1` [Compound 19], in that order: under 50% and under 30%.
Turning to `OCc1nnc2ccc(-c3ccc(OC(F)(F)F)cc3)nn12` [Compound 21], the inhibition at 1 µM in data set [2] is under 50%; at human NaV1.6 (hNaV1.6) (HEK293, read-out: INaL v1.6 (1 μM, % Inhibition)), under 30%.
In data set [1], `COc1cc(C2(C#N)CC2)ccc1-c1ccc2nnc(C(F)(F)F)n2n1` [Compound 22] had a clearance of 16.6 mL/min/kg and a half-life of 0.6 h. In addition, the inhibition at 1 µM in data set [2] was over 50%. The inhibition at 1 µM on human NaV1.6 (hNaV1.6) (setting [3]) is over 70%.
On to `Fc1cc(OC(F)(F)F)ccc1-c1ccc2nnc(C(F)(F)F)n2n1` [Compound 23], for which, in data set [1], the clearance worked out at 1.4 mL/min/kg and the half-life is 21.9 h. The inhibition at 1 µM in data set [2] was over 50%. The inhibition at 1 µM on human NaV1.6 (hNaV1.6) (setting [3]) was over 70%.
With `FC(F)(F)COc1ccc(-c2ccc3nnc(C(F)(F)F)n3n2)cn1` [Compound 30], in data set [1], the clearance worked out at 29 mL/min/kg and the half-life was 0.36 h. Besides, on CYP1A2, the negative logarithm of the IC50 (pIC50) is 4.52 to 4.82. The inhibition at 1 µM in data set [2] is over 50%. Further, the inhibition at 1 µM on human NaV1.6 (hNaV1.6) (setting [3]) is over 70%.
`Fc1cc(-c2ccc3nnc(C(F)(F)F)n3n2)ccc1OC(F)(F)F` [Compound 31]: the clearance in data set [1] is 2 mL/min/kg. In data set [1], this compound gave a half-life of 15.4 h. For the same compound, the inhibition at 1 µM in data set [2] is over 50%; at human NaV1.6 (hNaV1.6) (setting [3]), over 70%.

As a reminder, the clearance is the rate of elimination divided by the concentration. Higher therefore signals efficient removal. Broadly, the half-life is the time needed for the level to fall by half in the phase considered. A high value points to slow loss. A word on the pIC50: it is the IC50 on a negative log10 scale, so that one unit is a factor of ten. Higher therefore signals a small IC50. Usually inhibition stands for the relative decrease from the control value, in per cent.
